Data from the NIST ThermoML archive (doi:10.1016/j.jct.2009.05.006).
Numbers after ± are expanded uncertainties.

Tests used:
[1] = xn = mol fraction of the nth substance listed; conditions: 298.15 K, 101 kPa, Liquid, Vibrating tube method
[2] = excess molar enthalpy (molar enthalpy of mixing); xn = mol fraction of the nth substance listed; conditions: 298.15 K, 101 kPa, Liquid, Calvet calorimetry

BrCCCCBr [1,4-dibromobutane] + CCCCOC=O
Conditions	excess molar enthalpy [kcal/mol]	mass density [kg/m3]
[1], x2 = 0.0702	–	1756.08 ± 0.94
[1], x2 = 0.1221	–	1708.91 ± 0.89
[1], x2 = 0.1836	–	1652.89 ± 0.83
[1], x2 = 0.241	–	1600.45 ± 0.78
[1], x2 = 0.3018	–	1544.61 ± 0.72
[1], x2 = 0.4249	–	1431.07 ± 0.61
[1], x2 = 0.4765	–	1383.26 ± 0.57
[1], x2 = 0.5374	–	1326.55 ± 0.52
[1], x2 = 0.6529	–	1218.52 ± 0.42
[1], x2 = 0.7677	–	1110.31 ± 0.33
[1], x2 = 0.8248	–	1056.19 ± 0.29
[1], x2 = 0.8824	–	1001.42 ± 0.25
[1], x2 = 0.9353	–	950.88 ± 0.25
[2], x2 = 0.0646	0.0177 ± 0.000478	–
[2], x2 = 0.1478	0.0315 ± 0.000717	–
[2], x2 = 0.2392	0.0423 ± 0.000956	–
[2], x2 = 0.3291	0.0488 ± 0.0012	–
[2], x2 = 0.4058	0.0504 ± 0.0012	–
[2], x2 = 0.4726	0.0488 ± 0.0012	–
[2], x2 = 0.5295	0.0466 ± 0.000956	–
[2], x2 = 0.5817	0.0435 ± 0.000956	–
[2], x2 = 0.6425	0.0387 ± 0.000956	–
[2], x2 = 0.7078	0.033 ± 0.000717	–
[2], x2 = 0.7787	0.0253 ± 0.000717	–
[2], x2 = 0.8648	0.0165 ± 0.000478	–
[2], x2 = 0.9404	0.00669 ± 0.000239	–

BrCCCCCBr [1,5-dibromopentane] + CCCCOC=O
Conditions	excess molar enthalpy [kcal/mol]	mass density [kg/m3]
[1], x2 = 0.0756	–	1642.01 ± 0.82
[1], x2 = 0.1366	–	1599.08 ± 0.77
[1], x2 = 0.2027	–	1551.59 ± 0.73
[1], x2 = 0.2682	–	1503.58 ± 0.68
[1], x2 = 0.3259	–	1460.47 ± 0.64
[1], x2 = 0.3871	–	1413.8 ± 0.59
[1], x2 = 0.4492	–	1365.54 ± 0.55
[1], x2 = 0.5143	–	1313.85 ± 0.5
[1], x2 = 0.5679	–	1270.35 ± 0.46
[1], x2 = 0.6274	–	1221.19 ± 0.42
[1], x2 = 0.687	–	1170.94 ± 0.38
[1], x2 = 0.7958	–	1076.48 ± 0.3
[1], x2 = 0.8434	–	1033.97 ± 0.27
[1], x2 = 0.9499	–	936.18 ± 0.25
[2], x2 = 0.0868	0.0232 ± 0.000478	–
[2], x2 = 0.1853	0.0394 ± 0.000956	–
[2], x2 = 0.2872	0.0531 ± 0.0012	–
[2], x2 = 0.3842	0.0598 ± 0.00143	–
[2], x2 = 0.4656	0.0605 ± 0.00143	–
[2], x2 = 0.5328	0.0578 ± 0.0012	–
[2], x2 = 0.5803	0.0557 ± 0.0012	–
[2], x2 = 0.6291	0.0521 ± 0.0012	–
[2], x2 = 0.7084	0.0447 ± 0.000956	–
[2], x2 = 0.7902	0.0332 ± 0.000717	–
[2], x2 = 0.8713	0.0215 ± 0.000478	–
[2], x2 = 0.9437	0.0112 ± 0.000478	–

CCCCOC(=O)CCC [butyl butanoate] + BrCCCCBr
Conditions	excess molar enthalpy [kcal/mol]	mass density [kg/m3]
[1], x1 = 0.0459	–	1757.74 ± 0.95
[1], x1 = 0.1377	–	1643.47 ± 0.83
[1], x1 = 0.1788	–	1594.83 ± 0.78
[1], x1 = 0.2814	–	1479.86 ± 0.66
[1], x1 = 0.3346	–	1423.4 ± 0.61
[1], x1 = 0.3891	–	1367.86 ± 0.55
[1], x1 = 0.5003	–	1260.78 ± 0.46
[1], x1 = 0.5704	–	1197.33 ± 0.4
[1], x1 = 0.6285	–	1146.9 ± 0.36
[1], x1 = 0.7046	–	1083.68 ± 0.31
[1], x1 = 0.7684	–	1032.96 ± 0.27
[1], x1 = 0.8513	–	970.06 ± 0.24
[1], x1 = 0.9156	–	923.4 ± 0.24
[2], x1 = 0.0526	0.00645 ± 0.000239	–
[2], x1 = 0.1195	0.0117 ± 0.000478	–
[2], x1 = 0.1947	0.0139 ± 0.000478	–
[2], x1 = 0.2716	0.0117 ± 0.000478	–
[2], x1 = 0.3471	0.0055 ± 0.000239	–
[2], x1 = 0.4134	-0.00263 ± 0.000239	–
[2], x1 = 0.471	-0.0117 ± 0.000478	–
[2], x1 = 0.5005	-0.0155 ± 0.000478	–
[2], x1 = 0.579	-0.0206 ± 0.000478	–
[2], x1 = 0.6761	-0.0222 ± 0.000478	–
[2], x1 = 0.7901	-0.0196 ± 0.000478	–
[2], x1 = 0.9017	-0.0122 ± 0.000478	–

BrCCCCCBr [1,5-dibromopentane] + CCCCOC(=O)CC
[2]
Conditions	excess molar enthalpy [kcal/mol]
x2 = 0.0697	0.00741 ± 0.000239
x2 = 0.1544	0.012 ± 0.000478
x2 = 0.248	0.0124 ± 0.000478
x2 = 0.3363	0.00884 ± 0.000239
x2 = 0.4134	0.00263 ± 0.000239
x2 = 0.4801	-0.00526 ± 0.000239
x2 = 0.4924	-0.00884 ± 0.000239
x2 = 0.5371	-0.0131 ± 0.000478
x2 = 0.5511	-0.0165 ± 0.000478
x2 = 0.6257	-0.0206 ± 0.000478
x2 = 0.7153	-0.021 ± 0.000478
x2 = 0.8183	-0.016 ± 0.000478
x2 = 0.9151	-0.00884 ± 0.000239

BrCCCBr [1,3-dibromopropane] + CCCCOC(=O)CC
[2]
Conditions	excess molar enthalpy [kcal/mol]
x2 = 0.045	0.00765 ± 0.000239
x2 = 0.1122	0.0124 ± 0.000478
x2 = 0.1829	0.0129 ± 0.000478
x2 = 0.2541	0.00908 ± 0.000239
x2 = 0.3191	0.00215 ± 0.000239
x2 = 0.3797	-0.00813 ± 0.000239
x2 = 0.4331	-0.0151 ± 0.000478
x2 = 0.4438	-0.017 ± 0.000478
x2 = 0.5107	-0.0229 ± 0.000478
x2 = 0.5886	-0.0261 ± 0.000717
x2 = 0.6793	-0.0263 ± 0.000717
x2 = 0.7807	-0.022 ± 0.000478
x2 = 0.8921	-0.0131 ± 0.000478

BrCCBr [1,2-dibromoethane] + CCCCOC(=O)CC
[2]
Conditions	excess molar enthalpy [kcal/mol]
x2 = 0.0417	0.00526 ± 0.000239
x2 = 0.0966	0.00741 ± 0.000239
x2 = 0.1618	0.00621 ± 0.000239
x2 = 0.2302	0.00191 ± 0.000239
x2 = 0.2936	-0.00478 ± 0.000239
x2 = 0.3529	-0.012 ± 0.000478
x2 = 0.4091	-0.0179 ± 0.000478
x2 = 0.4511	-0.022 ± 0.000478
x2 = 0.4917	-0.0241 ± 0.000717
x2 = 0.5694	-0.0265 ± 0.000717
x2 = 0.6594	-0.0263 ± 0.000717
x2 = 0.7605	-0.0229 ± 0.000478
x2 = 0.8773	-0.0151 ± 0.000478
